Active and inactive are the calls of the source. How the calls were made is not given here.
Test system: CCRIS mutagenicity, Ames/micronucleus/aberration tests
Assay: CCRIS mutagenicity studies
[1] = Test System: AMES SALMONELLA TYPHIMURIUM, Strain/Indicator: TA98, Metabolic Activation: NONE, Method: PREINCUBATION
[2] = Test System: AMES SALMONELLA TYPHIMURIUM, Strain/Indicator: TA100, Metabolic Activation: NONE, Method: PREINCUBATION
[3] = Test System: AMES SALMONELLA TYPHIMURIUM, Strain/Indicator: TA1535, Metabolic Activation: NONE, Method: PREINCUBATION

Measured: mutagenic call

C=C[Si](C)(C)CCl
inactive: Test System: AMES SALMONELLA TYPHIMURIUM, Strain/Indicator: TA98, Metabolic Activation: HAMSTER, LIVER, S-9, AROCLOR 1254 (10%), Method: STANDARD PLATE inactive; negative | Test System: AMES SALMONELLA TYPHIMURIUM, Strain/Indicator: TA98, Metabolic Activation: NONE, Method: STANDARD PLATE inactive; negative | Test System: AMES SALMONELLA TYPHIMURIUM, Strain/Indicator: TA98, Metabolic Activation: RAT, LIVER, S-9, AROCLOR 1254 (10%), Method: STANDARD PLATE inactive; negative | Test System: AMES SALMONELLA TYPHIMURIUM, Strain/Indicator: TA100, Metabolic Activation: HAMSTER, LIVER, S-9, AROCLOR 1254 (10%), Method: STANDARD PLATE inactive; negative | Test System: AMES SALMONELLA TYPHIMURIUM, Strain/Indicator: TA100, Metabolic Activation: NONE, Method: STANDARD PLATE inactive; negative | Test System: AMES SALMONELLA TYPHIMURIUM, Strain/Indicator: TA100, Metabolic Activation: RAT, LIVER, S-9, AROCLOR 1254 (10%), Method: STANDARD PLATE inactive; negative | Test System: AMES SALMONELLA TYPHIMURIUM, Strain/Indicator: TA1535, Metabolic Activation: HAMSTER, LIVER, S-9, AROCLOR 1254 (10%), Method: STANDARD PLATE inactive; negative | Test System: AMES SALMONELLA TYPHIMURIUM, Strain/Indicator: TA1535, Metabolic Activation: NONE, Method: STANDARD PLATE inactive; negative | Test System: AMES SALMONELLA TYPHIMURIUM, Strain/Indicator: TA1535, Metabolic Activation: RAT, LIVER, S-9, AROCLOR 1254 (10%), Method: STANDARD PLATE inactive; negative | Test System: AMES SALMONELLA TYPHIMURIUM, Strain/Indicator: TA1537, Metabolic Activation: HAMSTER, LIVER, S-9, AROCLOR 1254 (10%), Method: STANDARD PLATE inactive; negative | Test System: AMES SALMONELLA TYPHIMURIUM, Strain/Indicator: TA1537, Metabolic Activation: NONE, Method: STANDARD PLATE inactive; negative | Test System: AMES SALMONELLA TYPHIMURIUM, Strain/Indicator: TA1537, Metabolic Activation: RAT, LIVER, S-9, AROCLOR 1254 (10%), Method: STANDARD PLATE inactive; negative | Test System: AMES SALMONELLA TYPHIMURIUM, Strain/Indicator: TA1538, Metabolic Activation: HAMSTER, LIVER, S-9, AROCLOR 1254 (10%), Method: STANDARD PLATE inactive; negative | Test System: AMES SALMONELLA TYPHIMURIUM, Strain/Indicator: TA1538, Metabolic Activation: NONE, Method: STANDARD PLATE inactive; negative | Test System: AMES SALMONELLA TYPHIMURIUM, Strain/Indicator: TA1538, Metabolic Activation: RAT, LIVER, S-9, AROCLOR 1254 (10%), Method: STANDARD PLATE inactive; negative | Test System: MOUSE LYMPHOMA, Strain/Indicator: L5178Y (TK+/TK-), Metabolic Activation: NONE, Method: SUSPENSION/PLATE inactive; negative. reevaluation of results: inconclusive | Test System: MOUSE LYMPHOMA, Strain/Indicator: L5178Y (TK+/TK-), Metabolic Activation: RAT, LIVER, S-9, AROCLOR 1254, Method: SUSPENSION/PLATE inactive; negative. reevaluation of results: negative

Nc1cc(S(=O)(=O)O)c2cccc(S(=O)(=O)O)c2c1
inactive: [1] inactive; negative | Test System: AMES SALMONELLA TYPHIMURIUM, Strain/Indicator: TA98, Metabolic Activation: RAT LIVER S-9, PHENOBARBITAL AND BETA-NAPHTHOFLAVONE, Method: PREINCUBATION inactive; negative | [2] inactive; negative | Test System: AMES SALMONELLA TYPHIMURIUM, Strain/Indicator: TA100, Metabolic Activation: RAT LIVER S-9, PHENOBARBITAL AND BETA-NAPHTHOFLAVONE, Method: PREINCUBATION inactive; negative | [3] inactive; negative | Test System: AMES SALMONELLA TYPHIMURIUM, Strain/Indicator: TA1535, Metabolic Activation: RAT LIVER S-9, PHENOBARBITAL AND BETA-NAPHTHOFLAVONE, Method: PREINCUBATION inactive; negative | Test System: AMES SALMONELLA TYPHIMURIUM, Strain/Indicator: TA1537, Metabolic Activation: NONE, Method: PREINCUBATION inactive; negative | Test System: AMES SALMONELLA TYPHIMURIUM, Strain/Indicator: TA1537, Metabolic Activation: RAT LIVER S-9, PHENOBARBITAL AND BETA-NAPHTHOFLAVONE, Method: PREINCUBATION inactive; negative | Test System: AMES SALMONELLA TYPHIMURIUM, Strain/Indicator: TA1538, Metabolic Activation: NONE, Method: PREINCUBATION inactive; negative | Test System: AMES SALMONELLA TYPHIMURIUM, Strain/Indicator: TA1538, Metabolic Activation: RAT LIVER S-9, PHENOBARBITAL AND BETA-NAPHTHOFLAVONE, Method: PREINCUBATION inactive; negative | Test System: E.COLI, Strain/Indicator: WP2UVRA, Metabolic Activation: NONE, Method: PREINCUBATION inactive; negative | Test System: E.COLI, Strain/Indicator: WP2UVRA, Metabolic Activation: RAT LIVER S-9, PHENOBARBITAL AND BETA-NAPHTHOFLAVONE, Method: PREINCUBATION inactive; negative

Cc1ccc(C#N)cc1
inactive: Test System: AMES SALMONELLA TYPHIMURIUM, Strain/Indicator: TA97, Metabolic Activation: HAMSTER, LIVER, S-9, AROCLOR 1254 (10%), Method: PREINCUBATION inactive; negative | Test System: AMES SALMONELLA TYPHIMURIUM, Strain/Indicator: TA97, Metabolic Activation: HAMSTER, LIVER, S-9, AROCLOR 1254 (30%), Method: PREINCUBATION inactive; negative | Test System: AMES SALMONELLA TYPHIMURIUM, Strain/Indicator: TA97, Metabolic Activation: NONE, Method: PREINCUBATION inactive; negative | Test System: AMES SALMONELLA TYPHIMURIUM, Strain/Indicator: TA97, Metabolic Activation: RAT, LIVER, S-9, AROCLOR 1254 (10%), Method: PREINCUBATION inactive; negative | Test System: AMES SALMONELLA TYPHIMURIUM, Strain/Indicator: TA97, Metabolic Activation: RAT, LIVER, S-9, AROCLOR 1254 (30%), Method: PREINCUBATION inactive; negative | Test System: AMES SALMONELLA TYPHIMURIUM, Strain/Indicator: TA98, Metabolic Activation: HAMSTER, LIVER, S-9, AROCLOR 1254 (10%), Method: PREINCUBATION inactive; negative | Test System: AMES SALMONELLA TYPHIMURIUM, Strain/Indicator: TA98, Metabolic Activation: HAMSTER, LIVER, S-9, AROCLOR 1254 (30%), Method: PREINCUBATION inactive; negative | [1] inactive; negative | Test System: AMES SALMONELLA TYPHIMURIUM, Strain/Indicator: TA98, Metabolic Activation: RAT, LIVER, S-9, AROCLOR 1254 (10%), Method: PREINCUBATION inactive; negative | Test System: AMES SALMONELLA TYPHIMURIUM, Strain/Indicator: TA98, Metabolic Activation: RAT, LIVER, S-9, AROCLOR 1254 (30%), Method: PREINCUBATION inactive; negative | Test System: AMES SALMONELLA TYPHIMURIUM, Strain/Indicator: TA100, Metabolic Activation: HAMSTER, LIVER, S-9, AROCLOR 1254 (10%), Method: PREINCUBATION inactive; negative | Test System: AMES SALMONELLA TYPHIMURIUM, Strain/Indicator: TA100, Metabolic Activation: HAMSTER, LIVER, S-9, AROCLOR 1254 (30%), Method: PREINCUBATION inactive; negative | [2] inactive; negative | Test System: AMES SALMONELLA TYPHIMURIUM, Strain/Indicator: TA100, Metabolic Activation: RAT, LIVER, S-9, AROCLOR 1254 (10%), Method: PREINCUBATION inactive; negative | Test System: AMES SALMONELLA TYPHIMURIUM, Strain/Indicator: TA100, Metabolic Activation: RAT, LIVER, S-9, AROCLOR 1254 (30%), Method: PREINCUBATION inactive; negative | Test System: AMES SALMONELLA TYPHIMURIUM, Strain/Indicator: TA1535, Metabolic Activation: HAMSTER, LIVER, S-9, AROCLOR 1254 (10%), Method: PREINCUBATION inactive; negative | Test System: AMES SALMONELLA TYPHIMURIUM, Strain/Indicator: TA1535, Metabolic Activation: HAMSTER, LIVER, S-9, AROCLOR 1254 (30%), Method: PREINCUBATION inactive; negative | [3] inactive; negative | Test System: AMES SALMONELLA TYPHIMURIUM, Strain/Indicator: TA1535, Metabolic Activation: RAT, LIVER, S-9, AROCLOR 1254 (10%), Method: PREINCUBATION inactive; negative | Test System: AMES SALMONELLA TYPHIMURIUM, Strain/Indicator: TA1535, Metabolic Activation: RAT, LIVER, S-9, AROCLOR 1254 (30%), Method: PREINCUBATION inactive; negative

From PubChem BioAssay AID1259407 (Chemical Carcinogenesis Research Information System (CCRIS), 2018)
